Data published in US20110318375A1, “Immunomodulatory Therapeutic Agents” (priority 2009, published 2011).
Entries after “also recorded” stand apart in the source; their conditions may differ. No end group written: not given here. PEG = not defined here

Legend:
[1] = system: Experimental Allergic Encephalomyelitis (EAE); assay: Acute Experimental Allergic Encephalomyelitis mouse model; type: in vivo, mice; details: subcutaneous, dosed daily, every 3 days and weekly
Source text: The carboxy terminus of activated Fibrinopeptide A was considered to be the active portion of the peptide, the carboxy terminus was PEGylate (addition of Poly Ethylene Glycol). This molecule was used to perform an EAE study. This study was designed to mimic the study done by Ruhenstroth-Bauer in 1981 utilizing two of these peptides, and showing some albeit mild benefit. The synthetic PEGylated peptide was expected to perform considerably better than the non-PEGylated peptide. Synthetic non-PEGylated peptide A was used as a positive control to compare the PEGylated verses non-PEGylated peptides. The medications were administered subcutaneously, due to this route having some efficacy in the cytokine profiles.
Test article 2 (PEGylated peptide) dosed daily, every 3 days and weekly never even approached statistically significant benefit.
During the first 22 days of the study EAE development in mice treated with test article 1 (daily non-PEGylated peptide A) was very similar to the vehicle-treated mice. […] Disease worsened in test article 1-treated mice on days 27 and 28 and became very similar to disease severity to the mice in the vehicle-treated group.

[2] = system: cytokine panels; assay: Cytokine panels for 24 hours after synthetic imf-C3, healthy volunteer; type: in vivo, human; details: followed for 24 hours
Procedure: After getting back the results of the Ponto Toro test and seeing no results from imf-C3, a healthy volunteer was given synthetic imf-C3 and cytokine panels were followed for 24 hours.

[3] = system: Ponto Toro Virus; type: in vivo, mice; details: mouse, in vivo

PEGylated peptide: activated Fibrinopeptide A with Poly Ethylene Glycol added to the carboxy terminus (ADSGEGDFLAEGGGVR-{PEG}; reading uncertain; UniProt P02671 20-35, looked up)
EAE development / activity versus vehicle-treated mice [1]: little or no response; also recorded: no activity | EAE development / activity versus vehicle-treated mice ([1]; listed as PEGylated Fibrinopeptide A): decrease any measurable activity

SEETKENERFTV [imf-C3]
changes in cytokine panels [2]: did not demonstrate in any changes | results of the Ponto Toro test [3]: no results
